Earlier results as cited in patent US12447190B1, “Vasopressin premix systems and uses thereof” (Baxter International Inc., priority 2023, dated 2025).

Columns and labels:
[1] = system: patients with vasodilatory shock

In the case of `NC(=O)CC[C@@H]1NC(=O)[C@H](Cc2ccccc2)NC(=O)[C@H](Cc2ccc(O)cc2)NC(=O)[C@@H](N)CSSC[C@@H](C(=O)N2CCC[C@H]2C(=O)N[C@@H](CCCN=C(N)N)C(=O)NCC(N)=O)NC(=O)[C@H](CC(N)=O)NC1=O` [vasopressin, Cyclo (1-6) L-Cysteinyl-L-Tyrosyl-L-Phenylalanyl-L-Glutaminyl-L-Asparaginyl-L-Cysteinyl-L-Prolyl-L-Arginyl-L-Glycinamide], the “time for pressor effect to fade” value ([1]; after stopping the infusion) is listed as ≤ 20 min, the “time for pressor effect to reach its peak” value ([1]; infusion in patients) is listed as ≤ 15 min and the “time to steady state plasma concentrations” value (continuous intravenous infusion) is listed as 30 min. The “vasopressin plasma concentrations versus infusion rate” value (infusion rates from 10 to 200 U/kg/min) was “increases linearly”.
